SMILES strings stand for the structures.

In experiment [1] the target is T1, hCB2 C6.47(257)A mutant receptor (Homo sapiens, UniProt P34972, C257A). The experiment can be described thus: Inhibition of forskolin-stimulated cAMP accumulation, hCB2 C6.47. The class given is cell-based. Particulars: read-out: IC50, inhibition of forskolin-stimulated cAMP accumulation; HEK293 cells, 5 μM forskolin, 5 min; mean (95% CI).
The target of experiment [2] is T2, hCB2 C6.47(257)S mutant receptor (Homo sapiens, UniProt P34972, C257S). The experiment is described as above. Format: cell-based. The following applies: read-out: IC50, inhibition of forskolin-stimulated cAMP accumulation; HEK293 cells, 5 μM forskolin, 5 min; mean (95% CI). Background: Cyclic AMP is a second messenger, typically raised through Gs and lowered through Gi signalling.
T2 sequence (P34972 whole entry C257S): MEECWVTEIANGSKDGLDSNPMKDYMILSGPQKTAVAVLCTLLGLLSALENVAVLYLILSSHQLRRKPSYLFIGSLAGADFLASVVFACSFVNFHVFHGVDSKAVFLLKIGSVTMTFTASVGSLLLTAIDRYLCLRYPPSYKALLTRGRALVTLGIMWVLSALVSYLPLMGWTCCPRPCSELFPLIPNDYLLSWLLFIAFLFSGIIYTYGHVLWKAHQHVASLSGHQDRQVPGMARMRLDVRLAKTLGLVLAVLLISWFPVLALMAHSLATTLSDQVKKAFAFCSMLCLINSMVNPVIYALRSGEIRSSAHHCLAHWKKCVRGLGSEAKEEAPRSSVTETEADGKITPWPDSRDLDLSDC

Experiment [3] addresses T3, WT hCB2 receptor (Homo sapiens, UniProt P34972). Put plainly: Inhibition of forskolin-stimulated cAMP accumulation, WT hCB2 cells. The following applies: read-out: IC50, inhibition of forskolin-stimulated cAMP accumulation; HEK293 cells, 5 μM forskolin, 5 min; mean (95% CI). Format: cell-based.
The target of experiment [4] is hCB2 K3.28(109)A mutant receptor (Homo sapiens, UniProt P34972, K109A). The experiment can be described thus: Competitive binding assay, hCB2 K3.28. Particulars: radioligand [3H]-CP55940; mean (95% CI).
hCB2 K3.28(109)A mutant receptor, sequence (P34972 whole entry K109A): as the sequence (P34972 whole entry C257S) above, with K109A, S257C counted along it
In experiment [5] the target is T2, hCB2 C6.47(257)S mutant receptor. Put plainly: Competitive binding assay, hCB2 C6.47. The following applies: for Ki: mean (95% CI); for increase in affinity over WT hCB2 receptor: C6.47(257)S vs WT.
Experiment [6] deals with T1, hCB2 C6.47(257)A mutant receptor. Put plainly: Competitive binding assay, hCB2 C6.47. Particulars: for enhancement of ability to displace CP55940 versus WT hCB2 / increase in affinity over WT hCB2 receptor: C6.47(257)A vs WT; for Ki: mean (95% CI).
The target of experiment [7] is hCB1 K3.28(192)A mutant receptor (Homo sapiens, UniProt P21554, K192A). The experiment can be described thus: Competitive binding assay, hCB1 K3.28. The following applies: radioligand [3H]-CP55940.
hCB1 K3.28(192)A mutant receptor, sequence (P21554 whole entry K192A): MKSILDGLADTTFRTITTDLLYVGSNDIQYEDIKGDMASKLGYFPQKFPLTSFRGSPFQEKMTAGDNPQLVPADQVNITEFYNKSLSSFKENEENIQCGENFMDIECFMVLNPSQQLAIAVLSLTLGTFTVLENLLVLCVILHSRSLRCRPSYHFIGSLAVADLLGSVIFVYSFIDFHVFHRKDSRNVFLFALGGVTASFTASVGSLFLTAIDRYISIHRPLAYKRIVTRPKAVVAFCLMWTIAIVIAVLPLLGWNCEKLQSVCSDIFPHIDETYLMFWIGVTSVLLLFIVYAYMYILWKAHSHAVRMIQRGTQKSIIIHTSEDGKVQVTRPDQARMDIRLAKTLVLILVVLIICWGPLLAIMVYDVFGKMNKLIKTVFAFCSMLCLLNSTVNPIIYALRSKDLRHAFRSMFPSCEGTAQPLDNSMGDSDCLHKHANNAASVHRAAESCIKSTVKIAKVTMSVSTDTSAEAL
For experiment [8], the system named is CB2 receptor S7.39A mutant. Particulars: ref Rhee (2002); cited from earlier work.
Experiment [9] addresses T2, hCB2 C6.47(257)S mutant receptor. Put plainly: Affinity-labeling assay, hCB2 C6.47. Particulars: 9 nM AM-841, 1 hr, 30°C, washed.
Experiment [10] concerns the target hCB2 C7.42(288)S mutant receptor (Homo sapiens, UniProt P34972, C288S). The experiment can be described thus: Affinity-labeling assay, hCB2 C7.42. The following applies: 9 nM AM-841, 1 hr, 30°C, washed.
Experiment [11] deals with T1, hCB2 C6.47(257)A mutant receptor. The experiment can be described thus: Affinity-labeling assay, hCB2 C6.47. Particulars: 9 nM AM-841, 1 hr, 30°C, washed.
Experiment [12] concerns C6.47(257)K, C6.47(257)I, C6.47(257)L, C6.47(257)D, and C6.47(257)Y hCB2 receptor mutants. Put plainly: Competitive binding assay, further C6.47. Set-up: species or system human. Particulars: radioligand [3H]-CP55940; data not shown.
The target of experiment [13] is hCB2 C7.38(284)S mutant receptor (Homo sapiens, UniProt P34972, C284S). Put plainly: Affinity-labeling assay, hCB2 C7.38. Particulars: 9 nM AM-841, 1 hr, 30°C, washed.
hCB2 C7.38(284)S mutant receptor, sequence (P34972 whole entry C284S): as the sequence (P34972 whole entry C257S) above, with S257C, C284S counted along it
Experiment [14] addresses T3, WT hCB2 receptor. Put plainly: Affinity-labeling assay.
Experiment [15] deals with C6.47(257)K, C6.47(257)I, C6.47(257)L, C6.47(257)D or C6.47(257)Y mutant hCB2 receptors. The experiment can be described thus: Saturation-binding assay, further C6.47. The following applies: data not shown. Set-up: species or system human.

T3 sequence (P34972 whole entry): as the sequence (P34972 whole entry C257S) above, with S257C counted along it
T1 sequence (P34972 whole entry C257A): as the sequence (P34972 whole entry C257S) above, with S257A counted along it
hCB2 C7.42(288)S mutant receptor, sequence (P34972 whole entry C288S): as the sequence (P34972 whole entry C257S) above, with S257C, C288S counted along it

Turning to `CCCCCCC(C)(C)c1cc(O)c2c(c1)OC(C)(C)[C@@H]1CC[C@@H](CO)C[C@@H]21` [AM-4056], the results for the IC50 (in experiment [1]; in experiment [2]; on WT hCB2 receptor [3]) were 2.62 nM, 8.82 nM and 3.27 nM, respectively. Moreover, the Ki in experiment [4] was 1.14 nM; in experiment [5] (radioligand [3H]-CP55940) it was 1.52 nM; in [5] (radioligand [3H]-WIN55212-2), 1.2 nM; in experiment [6] (radioligand [3H]-CP55940), 1.03 nM; in [6] (radioligand [3H]-WIN55212-2), 0.5 nM; in experiment [7] it was “No Specific Binding”. Also, the “enhancement of ability to displace CP55940 versus WT hCB2” value in [6] (radioligand [3H]-CP55940) is on record as “at least 2 fold”.
Regarding `CN1CCCCC1Cn1cc(C(=O)c2ccccc2I)c2ccccc21` (centres unmarked) [AM-2233], in experiment [5] (radioligand [3H]-WIN55212-2), the “increase in affinity over WT hCB2 receptor” value (“increase in affinity” below) is given as “over 11 fold” and affinity was put at a Ki of 0.8 nM. Moreover, in [6] (radioligand [3H]-WIN55212-2), the “increase in affinity” value is listed as “over 11 fold” and affinity was put at a Ki of 0.5 nM.
For `CC(C)(CCCCCCBr)c1cc(O)c2c(c1)OC(C)(C)C1CCC(CO)CC21` (centres unmarked) [AM-4043], the Ki turned out to be 1.51 nM in experiment [5] (radioligand [3H]-CP55940), 1.4 nM in [5] (radioligand [3H]-WIN55212-2), 0.88 nM in [6] (radioligand [3H]-CP55940) and 0.8 nM in experiment [6] (radioligand [3H]-WIN55212-2). In [6] (radioligand [3H]-CP55940), the “enhancement of ability to displace CP55940 versus WT hCB2” value is recorded as “at least 2 fold”.
On to `CCCCCCC(C)(C)c1cc(O)c2c(c1)OC(C)(C)[C@@H]1CC[C@@H](CO)C[C@@H]21` [HU-243], for which the “loss of affinity in S7.39A mutant” value in experiment [8] is “over 10 fold”.
Take `CC(C)(CCCCCCN=C=S)c1cc(O)c2c(c1)OC(C)(C)C1CCC(CO)CC21` (single isomer, unassigned; (-)) [AM-841, (−)-7′-isothiocyanato-11-hydroxy-1′,1′-di-methylheptylhexahydrocannabinol]: the IC50 in experiment [1] came to 6.01 nM; in [2], 2.88 nM; on WT hCB2 receptor [3], 0.079 nM. In addition, the “decrease in [3H]-CP55940 Bmax after AM-841 pretreatment” value in experiment [9] and in experiment [11] was “no distinct decrease” in each case. Further, the “decrease in [3H]-CP55940 binding after AM-841 pretreatment” value is reported as ~ 80% in experiment [10]; ~ 80% in [13]; ~ 80% at WT hCB2 receptor [14] (9 nM AM-841, 1 hr, 30°C, washed). Besides, the inhibitory constant (Ki) in experiment [4] is 2.31 nM; in [5] (radioligand [3H]-CP55940), 1.68 nM; in experiment [5] (radioligand [3H]-WIN55212-2), 1.5 nM; in [6] (radioligand [3H]-CP55940), 0.71 nM; in experiment [6] (radioligand [3H]-WIN55212-2), 0.7 nM; in [7], “No Specific Binding”. The “specific binding in competitive binding assay” value in experiment [12] is “no specific binding”. For the same compound, the “increase in affinity” value in experiment [5] (radioligand [3H]-WIN55212-2) and in [6] (radioligand [3H]-WIN55212-2) was 3–6 fold each time. Besides, the “Bmax for [3H]-CP55940 binding after preincubation” value on WT hCB2 receptor [14] (9 nM AM-841, 1 hr, 30°C, then extensive wash-out, control membranes 1.05) stood at 0.22 pmol/mg. Besides, the “irreversible AM-841 binding” value at WT hCB2 receptor [14] (data not shown) is ~ 80%. The “enhancement of ability to displace CP55940 versus WT hCB2” value in [6] (radioligand [3H]-CP55940) is given as “at least 2 fold”.
With `CCCCCCC(C)(C)c1ccc([C@@H]2C[C@H](O)CC[C@H]2CCCO)c(O)c1` [[^3H]-CP55940], the “specific binding of radioligand” value in experiment [15] is on record as “no specific binding”.

By IC50 is commonly meant the concentration at which inhibition is half-maximal. The term Ki denotes the dissociation constant of the complex between target and ligand, obtained from inhibition or displacement. A lower Ki goes with a stronger hold on the target.

The record behind these values is publication PMC3700404 (Chemistry & biology, 2008).
